Tested on: accumulation of c-AMP by PGE2
Assay: Antagonism of PGE2-enhanced c-AMP levels in mouse thymus cells (radioimmunoassay)
Assay type: cell-based
Description: A suitable test for this purpose is based on the enhancement of cyclic AMP (adenosine-3',5'-monophosphate) levels in tissues due to adenyl cyclase stimulated by the action of prostaglandins of the PGE2 type. An exemplification of such a test used to determine the antagonist activity of the compounds of the present invention is as follows. A BC 57/BL (Jackson Laboratories) mouse is sacrificed and the thymus gland removed and teased apart to provide thymus cells which are suspended in a culture medium. The degradation of c-AMP is blocked by addition of 4-(3-butoxy-4-methoxybenzyl)-2-imidazolidinone (Hoffman-LaRoche, Ro 20-1724), a c-AMP phosphodiesterase inhibitor. A measured dose of the compound under test is added to the suspension of cells and the suspension is incubated at 37° C. for ten minutes. A measured dose of PGE2 is added to the suspension, which is then incubated for a further period of 30 minutes. The cells are then centrifuged, washed and the c-AMP extracted with ethanol. The ethanol extract is evaporated to dryness, redissolved in buffer solution and the c-AMP level determined by a radioimmunoassay, see Zimmerman et al, Anal. Biochem. 71, 79 (1976) and Steiner et al, J. Biol. Chem. 247, 1106 (1972). Comparison of the enhancement of c-AMP levels produced by PGE2 alone and by PGE2 together with the compound under test allow determination of the antagonist activity.
An example of the results from this test are those obtained with 2-(3-hydroxy-trans-1-octenyl)-3-(5-carboethoxypentyloxy)-4-pyrone. The initial c-AMP level of the cell culture was measured as 1.9 ± 0.7 picomole c-AMP/10^7 cells. Incubation with 10^-5 M PGE2 alone enhanced the level to 88 ± 7 picomole c-AMP/10^7 cells. By comparison, when the cells were incubated for ten minutes with 7 × 10^-5 M of the test compound the c-AMP level was measured at 2 ± 0.1 picomole c-AMP/10^7 cells. Following incubation for 30 minutes with 10^-5 M PGE2 the level was measured as 51 ± 5 picomole c-AMP/10^7 cells. Similarly, in a second experiment, after ten minutes incubation with 7 × 10^-6 M of the test compound, the c-AMP level was measured at 1.4 ± 0.2 picomoles c-AMP/10^7 cells; after 30 minutes incubation with 10^-5 M PGE2 the c-AMP level was measured as 69 ± 8 picomoles c-AMP/10^7 cells. […] Both of these compounds are well known in the art as prostaglandin antagonists.

CCCCCCC#C[C@H]1CCC[C@@H]1OCCCCCC(=O)O [7-oxa-13-prostynoic acid, reference compound]
inhibition at 100 µM (Mus musculus, concentration of 10^-4 M, same test conditions): 45%

CCCCCC(O)/C=C/c1occc(=O)c1OCCCCCC(=O)OCC (racemic) [2-[(3RS)-3-hydroxy-trans-1-octenyl]-3-(5-carboethoxypentyloxy)-4-pyrone]
c-AMP level (7 × 10^-5 M test compound, then 30 minutes with 10^-5 M PGE2 (PGE2 alone 88 ± 7)): 51 ± 5 picomole c-AMP/10^7 cells
c-AMP level (second experiment, 7 × 10^-6 M test compound, then 30 minutes with 10^-5 M PGE2): 69 ± 8 picomoles c-AMP/10^7 cells
c-AMP level (second experiment, ten minutes with 7 × 10^-6 M test compound, before PGE2): 1.4 ± 0.2 picomoles c-AMP/10^7 cells
c-AMP level (thymus cells incubated ten minutes with 7 × 10^-5 M test compound, before PGE2): 2 ± 0.1 picomole c-AMP/10^7 cells

CCCCC[C@H](O)/C=C/[C@H]1[C@H](O)CC(=O)[C@@H]1C/C=C\CCCC(=O)O [PGE2, reference compound]
c-AMP level (incubation with 10^-5 M PGE2 alone (initial level 1.9 ± 0.7)): 88 ± 7 picomole c-AMP/10^7 cells

CC(=O)NNC(=O)N1Cc2ccccc2Oc2ccc(Cl)cc21 [SC-19220, reference compound]
inhibition at 50 µM (Mus musculus, 5 × 10^-5 M, same test conditions): 30%
